Drawing on ChEMBL document CHEMBL5550160, “Leveraging a rationally designed veliparib-based anilide eliciting anti-leukemic effects for the design of pH-responsive polymer nanoformulation” (Eur J Med Chem, 2024), this text covers IC50 for 19 molecules.

In one assay the test system is A549. Description: cells. The assay is classed as functional, cell-based. As to conditions: Homo sapiens.
In another assay the test system is PC-3. The assay is described as follows: cells. The assay is classed as functional, cell-based. As to conditions: Homo sapiens.
A further assay relates to HL-60. The assay is described as follows: cells. As to conditions: Homo sapiens.
For the next assay, the system named is HH. The assay is described as follows: cells. The format is functional, cell-based. As to conditions: Homo sapiens.
The test system of a further assay is MOLT-4. The assay is described as follows: cells. The format is functional, cell-based. As to conditions: Homo sapiens.
Another assay concerns the target Histone deacetylase 1 (Homo sapiens, UniProt Q13547). The assay is described as follows: Inhibition of HDAC1 (unknown origin) using p53 residues 379 to 382 [RHKK(Ac)] as fluorogenic substrate.
Another assay concerns the target Histone deacetylase 2 (Homo sapiens, UniProt Q92769). The assay is described as follows: Inhibition of HDAC2 (unknown origin).
In the next assay the target is Histone deacetylase 3 (Homo sapiens, UniProt O15379). The assay is described as follows: Inhibition of HDAC3 (unknown origin) using p53 residues 379 to 382 [RHKK(Ac)] as fluorogenic substrate.
Histone deacetylase 3, sequence (O15379 whole entry, the tested form may be a part): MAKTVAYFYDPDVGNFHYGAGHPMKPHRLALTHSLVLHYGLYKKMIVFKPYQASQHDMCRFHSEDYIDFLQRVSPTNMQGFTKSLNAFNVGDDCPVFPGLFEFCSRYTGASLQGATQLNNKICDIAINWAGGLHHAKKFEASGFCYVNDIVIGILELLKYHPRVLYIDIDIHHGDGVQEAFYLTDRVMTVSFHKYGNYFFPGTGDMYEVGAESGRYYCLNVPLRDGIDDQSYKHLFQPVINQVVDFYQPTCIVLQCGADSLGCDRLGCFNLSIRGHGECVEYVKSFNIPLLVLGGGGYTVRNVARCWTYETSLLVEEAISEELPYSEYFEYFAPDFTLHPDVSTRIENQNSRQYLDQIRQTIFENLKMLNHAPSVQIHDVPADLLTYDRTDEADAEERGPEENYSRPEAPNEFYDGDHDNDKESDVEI
A further assay deals with K562. Description: cells. As to conditions: Homo sapiens.
A further assay deals with FaDu. The assay is described as follows: cells. The assay is classed as functional, cell-based. Particulars: Homo sapiens.
The test system of another assay is SiHa. Description: cells. The assay is classed as functional, cell-based. As to conditions: Homo sapiens.
The next assay relates to MDA-MB-231. Description: Antiproliferative activity against human MDA-MB-231 cells assessed as inhibition of cell growth by MTT assay. The format is functional, cell-based.

Histone deacetylase 2, sequence (Q92769 whole entry, the tested form may be a part): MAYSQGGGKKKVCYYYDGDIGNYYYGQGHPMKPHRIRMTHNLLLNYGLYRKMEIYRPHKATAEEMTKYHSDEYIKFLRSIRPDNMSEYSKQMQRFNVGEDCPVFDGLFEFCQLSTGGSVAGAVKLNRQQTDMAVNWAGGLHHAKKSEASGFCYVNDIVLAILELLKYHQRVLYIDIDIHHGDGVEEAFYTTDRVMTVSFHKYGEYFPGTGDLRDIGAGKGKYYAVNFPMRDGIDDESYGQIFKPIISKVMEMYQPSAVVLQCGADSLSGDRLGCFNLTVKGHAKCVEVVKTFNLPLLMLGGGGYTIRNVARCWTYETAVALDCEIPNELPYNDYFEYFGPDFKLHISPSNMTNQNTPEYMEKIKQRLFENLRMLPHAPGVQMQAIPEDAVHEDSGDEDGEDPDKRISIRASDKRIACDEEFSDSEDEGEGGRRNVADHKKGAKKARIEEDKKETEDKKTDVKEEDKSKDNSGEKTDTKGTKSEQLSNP
Histone deacetylase 1, sequence (Q13547 whole entry, the tested form may be a part): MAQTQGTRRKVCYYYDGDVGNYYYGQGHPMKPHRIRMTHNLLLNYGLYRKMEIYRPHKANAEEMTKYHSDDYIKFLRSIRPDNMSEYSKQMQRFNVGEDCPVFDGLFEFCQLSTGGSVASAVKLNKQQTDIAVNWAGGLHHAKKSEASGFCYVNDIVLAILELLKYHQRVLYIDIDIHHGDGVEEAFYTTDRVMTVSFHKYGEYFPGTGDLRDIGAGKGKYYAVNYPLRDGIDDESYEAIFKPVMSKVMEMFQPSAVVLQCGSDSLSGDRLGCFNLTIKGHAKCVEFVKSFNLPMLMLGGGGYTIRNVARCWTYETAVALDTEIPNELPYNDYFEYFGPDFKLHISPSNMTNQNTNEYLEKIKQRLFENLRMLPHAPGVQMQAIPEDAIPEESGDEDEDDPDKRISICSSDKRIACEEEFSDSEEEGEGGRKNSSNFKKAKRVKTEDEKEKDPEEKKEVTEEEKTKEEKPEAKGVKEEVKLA
Description for A549: Antiproliferative activity against human A549 cells assessed as inhibition of cell growth by MTT assay
Description for FaDu: Antiproliferative activity against human FaDu cells assessed as inhibition of cell growth by MTT assay
Description for HH: Antiproliferative activity against human HH cells assessed as inhibition of cell growth by MTT assay
Description for HL-60: Antiproliferative activity against human HL-60 cells assessed as inhibition of cell growth by MTT assay
Description for K562: Antiproliferative activity against human K562 cells assessed as inhibition of cell growth by MTT assay
Description for MOLT-4: Antiproliferative activity against human MOLT-4 cells assessed as inhibition of cell growth by MTT assay
Description for PC-3: Antiproliferative activity against human PC-3 cells assessed as inhibition of cell growth by MTT assay
Description for SiHa: Antiproliferative activity against human SiHa cells assessed as inhibition of cell growth by MTT assay

In general, IC50 refers to the midpoint of a concentration-inhibition curve. For `NC(=O)c1cccc2[nH]c(-c3ccc(NC(=O)CCCCCCCC(=O)Nc4ccccc4N)cc3)nc12`, the half-maximal inhibitory concentration (IC50) in the assay on A549 was greater than 10 µM; in the assay on PC-3 it was greater than 10 µM; in the assay with HL-60, 4.92 µM.
Take `NC(=O)c1cccc2[nH]c(-c3ccc(NCc4ccc(/C=C/C(=O)Nc5ccccc5N)cc4)cc3)nc12`: the IC50 with A549 was greater than 10 µM; with PC-3, greater than 10 µM; in the assay on HL-60, 3.65 µM.
On to `NC(=O)c1cccc2[nH]c(-c3ccc(NC(=O)CCCCCC(=O)Nc4ccccc4N)cc3)nc12`, for which the values for the IC50 in the assay with A549, in the assay with PC-3 and with HL-60 were 4.32 µM, greater than 10 µM and 2.43 µM, respectively.
Consider `NC(=O)c1cccc2[nH]c(-c3ccc(NC(=O)CCC(=O)NO)cc3)nc12`, for which the IC50 with A549 is greater than 10 µM; in the assay with PC-3, greater than 10 µM; in the assay on HL-60 it was 7.89 µM.
`NC(=O)c1cccc2[nH]c(-c3ccc(NC(=O)CCCCCCCCC(=O)NO)cc3)nc12`: the IC50 is greater than 10 µM with A549, 8.91 µM in the assay with PC-3 and greater than 10 µM in the assay on HL-60.
For the molecule `NC(=O)c1cccc2[nH]c(-c3ccc(NC(=O)CCCCCC(=O)NO)cc3)nc12`, the values for the IC50 in the assay with A549, in the assay on PC-3 and in the assay with HL-60 were 5.41 µM, 2.32 µM and 8.76 µM, respectively.
`NC(=O)c1cccc2[nH]c(-c3ccc(NCc4ccc(/C=C/C(=O)NO)cc4)cc3)nc12`: the IC50 with A549 worked out at 2.03 µM; in the assay on PC-3, 1.99 µM; in the assay with HL-60, 5.99 µM.
For `Nc1ccccc1NC(=O)c1ccc(CNC(=O)OCc2ccccc2)cc1`, the 50% inhibitory concentration (IC50) in the assay with A549 worked out at 3.45 µM; in the assay on PC-3, 5.21 µM; with HH, 4.98 µM; in the assay with MOLT-4, 5.67 µM; against Histone deacetylase 1, 0.544 µM; at Histone deacetylase 2, 0.613 µM. The IC50 stood at 0.624 µM against Histone deacetylase 3, 2.98 µM in the assay on HL-60 and 4.21 µM in the assay with K562.
Consider `C[C@]1(c2nc3c(C(N)=O)cccc3[nH]2)CCCN1` [VELIPARIB], for which the IC50 with A549, in the assay on PC-3, with HH, with MOLT-4, in the assay on FaDu and in the assay with SiHa was greater than 10 µM throughout. For the same molecule, the IC50 in the assay on MDA-MB-231, in the assay with HL-60 and in the assay on K562 was greater than 10 µM throughout.
In the case of `NC(=O)c1cccc2[nH]c(-c3ccc(NC(=O)CCCCCCC(=O)NO)cc3)nc12`, the half-inhibitory concentration (IC50) is 2.11 µM with A549, 1.87 µM with PC-3 and 3.21 µM with HL-60.
The corresponding values for `NC(=O)c1cccc2[nH]c(-c3ccc(NC(=O)CCCCCCCCC(=O)Nc4ccccc4N)cc3)nc12` are greater than 10 µM, greater than 10 µM and 7.96 µM.
The corresponding values for `NC(=O)c1cccc2[nH]c(-c3ccc(NC(=O)CCCCC(=O)Nc4ccccc4N)cc3)nc12` are greater than 10 µM, 4.76 µM and 2.93 µM.
Regarding `NC(=O)c1cccc2[nH]c(-c3ccc(NC(=O)CCCCC(=O)NO)cc3)nc12`, the results for the half-maximal inhibitory concentration (IC50) in the assay on A549, with PC-3 and with HL-60 were 6.98 µM, 2.44 µM and 5.45 µM, respectively.
For `NC(=O)c1cccc2[nH]c(-c3ccc(NC(=O)CCC(=O)Nc4ccccc4N)cc3)nc12` the same measures were greater than 10 µM, greater than 10 µM and 3.75 µM.
The corresponding values for `NC(=O)c1cccc2[nH]c(-c3ccc(NCc4ccc(C(=O)NO)cc4)cc3)nc12` are 2.31 µM, 2.34 µM and 1.23 µM.
For the molecule `NC(=O)c1cccc2[nH]c(-c3ccc(NC(=O)CCCC(=O)Nc4ccccc4N)cc3)nc12`, the results for the IC50 in the assay with A549, in the assay on PC-3 and with HL-60 were greater than 10 µM, greater than 10 µM and 3.21 µM, respectively.
Turning to `NC(=O)c1cccc2[nH]c(-c3ccc(NC(=O)CCCCCCCC(=O)NO)cc3)nc12`, the IC50 in the assay with A549 is greater than 10 µM; in the assay on PC-3, 7.65 µM; with HL-60 it was greater than 10 µM.
In the case of `NC(=O)c1cccc2[nH]c(-c3ccc(NC(=O)CCCCCCC(=O)Nc4ccccc4N)cc3)nc12`, the results for the IC50 in the assay with A549, in the assay with PC-3 and in the assay with HL-60 were 2.99 µM, 3.45 µM and 1.04 µM, respectively.
For `NC(=O)c1cccc2[nH]c(-c3ccc(NC(=O)CCCC(=O)NO)cc3)nc12` the same measures were greater than 10 µM, greater than 10 µM and greater than 10 µM.
